Values joined by “and” are separate entries in the source; they are usually repeats but may differ in a detail not shown here. Identical values can stand only once.
`CCOC(=O)/C(C#N)=C\c1ccc(-c2ccccc2OC)o1` [Ethyl (2Z)-2-cyano-3-[5-(2-methoxyphenyl)-2-furyl]acrylate] showed a melting point of 121 °C.
In the case of `CCOC(=O)/C(C#N)=N\Nc1ccccc1[N+](=O)[O-]` [Ethyl (2Z)-cyano[(2-nitrophenyl)hydrazono]acetate], the melting point is reported as 103 °C.
Compound `C=CC(=O)OCC` [Ethyl acrylate] has a melting point of -71 °C.
`CCc1ccccc1` [Ethylbenzene] gave a melting point of -94.9 °C.
For `O=C(c1ccccc1)c1ccc(C(F)(F)F)cc1` [FXFFR DVR], the melting point was 116 °C.
With `O=C(O)CCC(=O)c1ccc(-c2ccccc2)cc1` [Fenbufen] the melting point was 186 °C.
In the case of `c1ccc2c(c1)Cc1ccccc1-2` [Fluorene], the melting point is reported as 116 °C.
Compound `O=[N+]([O-])c1ccc(Oc2ccc(C(F)(F)F)cc2[N+](=O)[O-])cc1` [Fluorodifen] has a melting point of 90 °C.
`NS(=O)(=O)c1cc(C(=O)O)c(NCc2ccco2)cc1Cl` [Furosemide] gave a melting point of 206 °C.
Compound `O=c1c(-c2ccc(O)cc2)coc2cc(O)cc(O)c12` [Genistein] has a melting point of 302 °C.
With `N=C(N)N` [Guanidine] the melting point was 50 °C.
`O=C(CCCN1CCC(O)(c2ccc(Cl)cc2)CC1)c1ccc(F)cc1` [Haloperidol] gave a melting point of 152 °C.
`CCC1(C2=CCCCCC2)C(=O)NC(=O)NC1=O` [Heptabarbital] gave a melting point of 174 °C.
Work on `ClC1=C(Cl)C2(Cl)C3C(Cl)C=CC3C1(Cl)C2(Cl)Cl` (stereo unspecified) [Heptachlor] yielded a melting point of 95 °C.
`O=C(O)C(F)(F)C(F)(F)C(F)(F)C(F)(F)C(F)(F)C(F)(F)C(F)(F)C(F)(F)F` [Heptadecafluorononanoic acid] gave a melting point of 66.5 °C.
`CCCCCC(C)=O` [Heptan-2-one] gave a melting point of -35 °C.
Work on `CCCCCCC` [Heptane] yielded a melting point of -91 °C.
For `CCCCCCC(=O)O` [Heptanoic acid], the melting point was -9 °C.
With `ClC(Cl)(Cl)C(Cl)(Cl)Cl` [Hexachloroethane] the melting point was 192 °C.
Compound `CCCCCCCCCCCCCCCC` [Hexadecane] has a melting point of 18 °C.
`CCCCCCO` [Hexan-1-ol] gave a melting point of -52 °C.
Compound `CCCCCC(=O)O` [Hexanoic acid] has a melting point of -3 °C.
For `CCCCCCc1ccccc1` [Hexylbenzene], the melting point was -61 °C.
Compound `O=C1Cc2ccccc2C(=O)O1` [Homophthalic acid anhydride] has a melting point of 143 °C.
With `Br` [Hydrogen bromide] the melting point was -87 °C and -86 °C.
`NC(=O)NO` [Hydroxyurea] showed a melting point of 144 °C.
`CC(C)Cc1ccc(C(C)C(=O)O)cc1` (stereo unspecified) [Ibumetin] gave a melting point of 75 °C.
`CCCCCCCCCCCCCCCCCCCC` [Icosane] showed a melting point of 36.7 °C.
For `O=P1(NCCCl)OCCCN1CCCl` (stereo unspecified) [Ifosfamide], the melting point was 40 °C.
`CC(C)Cn1cnc2c(N)nc3ccccc3c21` [Imiquimod] gave a melting point of 293 °C.
Compound `CCI` [Iodoethane] has a melting point of -108 °C.
Work on `CI` [Iodomethane] yielded a melting point of -64 °C.
For `CC(C)c1ncc([N+](=O)[O-])n1C` [Ipronidazole], the melting point was 61 °C.
For `O=C1Nc2ccccc2C1=O` [Isatin], the melting point was 203 °C.
With `NNC(=O)c1ccncc1` [Isoniazid] the melting point was 171 °C.
`O=Cc1cccc(C=O)c1` [Isophthalaldehyde] showed a melting point of 88.8 °C.
For `CC(C)c1ccccc1` [Isopropylbenzene], the melting point was -96 °C.
For `CO[C@@H]1[C@@H](O[C@@H]2O[C@H](C)[C@@H](O[C@H]3C[C@@](C)(O)[C@@H](OC(=O)CC(C)C)[C@H](C)O3)[C@H](N(C)C)[C@H]2O)[C@@H](CC=O)C[C@@H](C)[C@@H](O)C=CC=CC[C@@H](C)OC(=O)C[C@H]1OC(C)=O` [Josamycin], the melting point was 132 °C.
In the case of `CC(C(=O)O)c1cccc(C(=O)c2ccccc2)c1` (stereo unspecified) [Ketoprofen], the melting point is reported as 94 °C.
With `C[C@H](N)C(=O)N[C@@H](C)C(=O)O` [L-Alanyl-L-alanine] the melting point was 280 °C.
Compound `N=C(N)NCCC[C@H](N)C(=O)O` [L-Arginine] has a melting point of 221 °C.
`CC[C@H](C)[C@H](N)C(=O)O` [L-Isoleucine] gave a melting point of 169 °C.
With `C[C@@H](O)[C@H](N)C(=O)O` [L-Threonine] the melting point was 256 °C.
In the case of `CC(C)[C@H](N)C(=O)O` [L-Valine], the melting point is reported as 308 °C.
`C[C@@H]1O[C@@H](O)[C@@H](O)[C@H](O)[C@@H]1O` [L-fucose] showed a melting point of 139 °C.
`N[C@H](CO)Cc1ccccc1` [L-phenylalaninol] gave a melting point of 92 °C.
`N[C@@H](Cc1ccc(O)c(O)c1)C(=O)O` [Levodopa] gave a melting point of 277 °C.
Compound `ClC1C(Cl)C(Cl)C(Cl)C(Cl)C1Cl` (stereo unspecified) [Lindane] has a melting point of 112 °C.
In the case of `CCOC(=O)O[C@]1(C(=O)OCCl)CC[C@H]2[C@@H]3CCC4=CC(=O)C=C[C@]4(C)[C@H]3[C@@H](O)C[C@@]21C` [Loteprednol], the melting point is reported as 222 °C.
Compound `Cc1cccc(Nc2ccccc2C(=O)O)c1C` [Mefenamic acid] has a melting point of 230 °C.
Compound `CC1(C)OC(=O)CC(=O)O1` [Meldrum's Acid] has a melting point of 98 °C.
For `CC(C)[C@@H]1CC[C@@H](C)C[C@H]1O` [Menthol], the melting point was 43 °C.
`C` [Methane] showed a melting point of -182 °C.
Compound `COC(=O)c1ccc(O)cc1` [Methyl 4-hydroxybenzoate] has a melting point of 131 °C.
`CNC(=O)O/N=C(\C)SC` [Methyl (1E)-N-[(methylcarbamoyl)oxy]ethanimidothioate] showed a melting point of 79 °C.
Work on `CCCC(=O)OC` [Methyl butyrate] yielded a melting point of -95 °C.
Compound `C=C(C)C(=O)OC` [Methyl methacrylate] has a melting point of -48 °C.
With `COS(C)(=O)=O` [Methyl methanesulfonate] the melting point was 20 °C.
With `CCC(=O)OC` [Methyl propionate] the melting point was -88 °C.
Work on `N#CSCSC#N` [Methylene bis(thiocyanate)] yielded a melting point of 106 °C.
With `CNN` [Methylhydrazine] the melting point was -80 °C.
`CCN(CC)CCNC(=O)c1cc(Cl)c(N)cc1OC` [Metoclopramide] [listing 1 of 2 here] gave a melting point of 147 °C.
Work on `CCN(CC)CCNC(=O)c1cc(Cl)c(N)cc1OC` [Metoclopramide] [listing 2 of 2 here] yielded a melting point of 147 °C.
With `Cc1ccccc1N1C(=O)c2cc(S(N)(=O)=O)c(Cl)cc2NC1C` (stereo unspecified) [Metolazone] the melting point was 256 °C.
With `Cc1ncc([N+](=O)[O-])n1CCO` [Metronidazole] the melting point was 160 °C.
With `Oc1ccc(OCc2ccccc2)cc1` [Monobenzone] the melting point was 114 °C.
`CC(=O)Nc1ccc(/C=C/c2ccc(NC(C)=O)cc2)cc1` [N,N'-[(E)-ethene-1,2-diyldibenzene-4,1-diyl]diacetamide] showed a melting point of 172 °C.
Compound `O=C(Nc1ccc(/C=C/c2ccc(NC(=O)c3ccccc3)cc2)cc1)c1ccccc1` [N,N'-[(E)-ethene-1,2-diyldibenzene-4,1-diyl]dibenzamide] has a melting point of 253 °C.
`Oc1ccccc1C=NCCN=Cc1ccccc1O` [N,N'-bis(salicylidene)ethylenediamine] gave a melting point of 130 °C.
Work on `CC(=O)NC1CCCCC(NC(C)=O)CCCC1` (stereo unspecified) [N,N'-cyclodecane-1,6-diyldiacetamide] yielded a melting point of 256 °C.
With `C=CC(=O)NCCNC(=O)C=C` [N,N'-ethylenebisacrylamide] the melting point was 142 °C.
With `O=P1(N(CCCl)CCCl)NCCCO1` (stereo unspecified) [N,N-Bis(2-chloroethyl)-1,3,2-oxazaphosphinan-2-amine 2-oxide] the melting point was 43 °C.
In the case of `CCN(CC)c1ccccc1` [N,N-Diethylaniline], the melting point is reported as -38 °C.
With `CN(C)c1ccc(N)cc1` [N,N-Dimethylbenzene-1,4-diamine] the melting point was 35 °C.
`CCN(C)C` [N,N-Dimethylethanamine] showed a melting point of -140 °C.
`CN(C)C=O` [N,N-Dimethylformamide] gave a melting point of -61 °C.

Source: the Bradley open melting point set (2014)
